Measured values published in patent US20210246140A1, “MODULATORS OF METABOTROPIC GLUTAMATE RECEPTOR 2” (The General Hospital Corporation, priority 2020, published 2021).

How the values were obtained:
[1] = Ex vivo whole body biodistribution of [11C]1; assay type: in vivo, Sprague Dawley rats
Protocol: The quantitative biodistribution of [^11C]1 was done using 16 healthy Sprague Dawley rats (weight 330-370 g). After anesthetization (2% isoflurane with oxygen flow of 1.5 L/min) the rats were administrated with the [^11C]1 (30-42 MBq (0.81-1.14 mCi) using tail vein injection and sacrificed by decapitation at the time points 5, 20, 30 or 40 min after administration of the radioactivity. The tissue samples including blood, midbrain, cerebellum, cortex, lung, heart, liver, spleen, kidney and muscle were rapidly collected into pre-weighted gamma-counting tubes and measured with standards (samples of [^11C]1) using PerkinElmer Wizard2 2480 gamma-counter. Tubes were weighted, and the net mass of the tissue samples was determined and the percent of the injected radioactivity (% ID/g) in the samples was calculated.
The ex vivo biodistribution was performed in 16 normal male Sprague Dawley rats after intravenous injection of [^11C]1 at several time points (5, 20, 30 and 40 min). The uptake value is expressed in the unit of % ID/g. […] The highest accumulation was measured in the liver (2.73±0.02% ID/g) followed by kidney (1.05±0.07% ID/g), spleen (0.67±0.05% ID/g), lung (0.59±0.04% ID/g), and heart (0.58±0.05% ID/g). […] The average accumulation of [^11C]1 in the rat brain at 5 min was (0.49±0.07% ID/g) (FIG. 22).

mGluR2 in rat brain = mGluR2 in rat brain (Rattus norvegicus, UniProt P31421); test: In vivo PET imaging of [11C]1 in rat brain with blocking studies
mGluR2 in rat brain, sequence (P31421 19-872): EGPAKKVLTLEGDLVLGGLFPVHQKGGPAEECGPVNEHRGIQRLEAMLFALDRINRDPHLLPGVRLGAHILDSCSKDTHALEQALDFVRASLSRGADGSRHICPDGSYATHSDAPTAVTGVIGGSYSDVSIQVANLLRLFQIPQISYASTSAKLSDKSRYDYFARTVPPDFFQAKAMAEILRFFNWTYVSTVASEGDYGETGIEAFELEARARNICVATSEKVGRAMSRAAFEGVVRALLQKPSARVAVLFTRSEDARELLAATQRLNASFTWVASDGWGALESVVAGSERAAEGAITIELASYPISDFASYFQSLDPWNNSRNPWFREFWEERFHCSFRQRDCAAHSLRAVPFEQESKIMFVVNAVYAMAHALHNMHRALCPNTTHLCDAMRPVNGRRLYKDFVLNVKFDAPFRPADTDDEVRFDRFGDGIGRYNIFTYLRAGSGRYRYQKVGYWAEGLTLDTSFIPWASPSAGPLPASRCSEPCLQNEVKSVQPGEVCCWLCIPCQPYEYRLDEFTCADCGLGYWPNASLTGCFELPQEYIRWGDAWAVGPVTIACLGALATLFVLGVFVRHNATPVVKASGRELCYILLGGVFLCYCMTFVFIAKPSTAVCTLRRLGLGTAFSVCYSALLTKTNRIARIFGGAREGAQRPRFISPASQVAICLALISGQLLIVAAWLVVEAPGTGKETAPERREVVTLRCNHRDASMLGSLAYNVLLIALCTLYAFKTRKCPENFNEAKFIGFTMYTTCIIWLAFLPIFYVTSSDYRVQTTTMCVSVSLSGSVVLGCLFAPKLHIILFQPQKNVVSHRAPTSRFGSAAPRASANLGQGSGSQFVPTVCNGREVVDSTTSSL
Protocol: The rats were adjusted into the scanner for imaging position (Triumph II Preclinical Imaging System, Trifoil Imaging, LLC, Northridge, Calif.). The vital signs such as heart rate and/or breathing were monitored throughout the imaging. […] The “cold” compounds were administered (i.v., 4 mg/kg) 10 min before the radioactivity. CT scan was performed after every PET imaging study to obtain anatomical information and correction for attenuation. […] The ROIs, i.e., whole brain, thalamus, cerebellum, striatum, and cortex, were drawn onto coronal PET slices according to the brain outlines as derived from the rat brain atlas and corresponding TACs (time-activity curves) were created by PMOD 3.2 (PMOD Technologies Ltd., Zurich, Switzerland). Percent changes between the control and blocking studies were calculated in the selected brain areas at the 10-30 min time window after injection of [^11C]1.
The characterization of [11C]1 was conducted with rat (male Sprague-Dawley) studies. […] The rats were adjusted into the scanner for imaging position (Triumph II, Trifoil Imaging Inc, Northridge, Calif.). The vital signs such as heart rate and/or breathing were monitored throughout the imaging. […] When the blocking studies were done the imaging procedures started with the baseline study using [^11C]1 followed by 2 hrs later the blocking agent and another administration of [^11C]1 in the same animal. The blocking agent was administered intravenously 2 min before injection of the second [^11C]1 if self-blocking, 10 min before [^11C]1 if blocking was with JNJ The dynamic PET data was acquired starting from the injection of radioactivity and continued for 60 min. After the dynamic PET data acquisition CT imaging was done to obtain data for attenuation as well as anatomical information of the brain. […] Percent changes between the control and blocking studies were calculated in all brain areas. […]

Determination of Log P = assay type: physicochemical; details: experimental lipophilicity
Protocol: Determination of Log P The Log P was determined using a reversed-phase HPLC method. First, seven reference compounds were examined to obtain the linear regression of the log P against the log of capacity factors by the expression: log Pow=a+b*log k. The Log P of these reference compounds was already been determined. The capacity factor k was calculated by the expression: k=(tR−t0)/t0. The retention time tR of test compound was determined on the HPLC (Agilent 1260 infinity II LC System, XTerra™ MS Cis 5μ 2.1×250 mm, methanol/water=75/25, 0.25 mL/min). The dead-time to was measured by using thiourea. The linear regression equation of the Log P against the log of capacity factors was generated in Excel: log Pow=3.049+2.429*log k, where R^2 was 0.9964. The retention time of compound 1, 2, and 7 was also determined on the HPLC under the same condition and each test was repeated three times (FIG. 5).
(§1) The experimental lipophilicity was measured by using liquid-liquid partition between n-octanol and water (“shake-flask method”) [see ref. 54]. […] The plasma protein binding comprises compounds' binding to albumin, α1-acid glycoprotein and lipoproteins once delivered to the bloodstream. This property was evaluated for compounds 1 and 2 by equilibrium dialysis [see ref. 56], where two chambers were separated by a dialysis membrane (MWCO 8 kD). The plasma protein bindings of 1 and 2 are 87.2% and 88.7%, respectively (see FIGS. 20 and 6). Therefore, the high plasma free fraction of compounds 1 and 2 (>10%) would allow enough free drug concentration in blood stream to reach the brain targets.

recombinant human P-gp = recombinant human P-gp (Homo sapiens, UniProt P08183); test: P-gp ATPase assay (Pgp-Glo assay); assay type: biochemical; details: human P-gp membrane, verapamil as positive control
recombinant human P-gp, sequence (P08183 whole entry): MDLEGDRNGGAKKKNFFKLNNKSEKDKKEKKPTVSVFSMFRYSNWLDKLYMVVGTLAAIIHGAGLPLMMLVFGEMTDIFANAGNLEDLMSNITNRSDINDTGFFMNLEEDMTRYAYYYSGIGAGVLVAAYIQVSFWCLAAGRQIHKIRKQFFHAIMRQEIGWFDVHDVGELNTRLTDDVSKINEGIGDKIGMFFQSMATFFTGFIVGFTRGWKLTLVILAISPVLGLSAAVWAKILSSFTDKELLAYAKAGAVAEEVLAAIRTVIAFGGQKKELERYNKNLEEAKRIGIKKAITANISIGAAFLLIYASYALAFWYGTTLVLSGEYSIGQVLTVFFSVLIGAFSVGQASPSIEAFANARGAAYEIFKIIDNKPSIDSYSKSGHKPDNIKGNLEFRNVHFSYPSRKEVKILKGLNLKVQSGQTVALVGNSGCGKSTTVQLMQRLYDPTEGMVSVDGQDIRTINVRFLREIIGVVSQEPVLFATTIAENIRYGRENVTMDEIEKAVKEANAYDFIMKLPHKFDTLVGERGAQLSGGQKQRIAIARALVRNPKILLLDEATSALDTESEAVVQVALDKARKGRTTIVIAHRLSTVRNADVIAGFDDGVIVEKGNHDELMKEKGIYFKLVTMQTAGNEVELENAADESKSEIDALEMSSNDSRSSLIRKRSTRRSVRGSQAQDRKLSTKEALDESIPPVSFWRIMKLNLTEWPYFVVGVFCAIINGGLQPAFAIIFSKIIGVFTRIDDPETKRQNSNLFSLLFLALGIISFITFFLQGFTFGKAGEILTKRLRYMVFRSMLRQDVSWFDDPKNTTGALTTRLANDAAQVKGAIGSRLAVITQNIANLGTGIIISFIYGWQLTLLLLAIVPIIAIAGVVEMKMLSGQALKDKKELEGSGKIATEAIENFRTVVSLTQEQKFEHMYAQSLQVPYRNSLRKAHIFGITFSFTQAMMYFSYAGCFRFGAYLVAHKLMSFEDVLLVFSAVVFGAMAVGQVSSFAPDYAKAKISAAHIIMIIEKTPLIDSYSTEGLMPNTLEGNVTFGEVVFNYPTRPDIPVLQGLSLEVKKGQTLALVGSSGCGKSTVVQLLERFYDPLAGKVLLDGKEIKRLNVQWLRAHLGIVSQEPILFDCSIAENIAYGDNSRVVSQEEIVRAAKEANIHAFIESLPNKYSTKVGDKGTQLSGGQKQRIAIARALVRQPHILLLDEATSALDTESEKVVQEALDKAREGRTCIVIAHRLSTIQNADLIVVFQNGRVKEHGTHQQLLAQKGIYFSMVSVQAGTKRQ
Protocol: P-gp ATPase activity was measured with the Pgp-Glo™ assay system with human P-gp membrane by following the manufacturer's instructions (Promega, Co. USA). The assay relies on the ATP dependence of the light-generating reaction of firefly luciferase. Briefly, 25 μg of P-gp membrane was incubated at 37° C. with one of these samples including Na3VO4 (100 μM), solvent control (0.1% DMSO), quercetin (100 μM), the test compound (200 μM), verapamil (100 μM), verapamil (100 μM) plus the test compound (100 μM). The ATPase reaction was initiated by addition of MgATP (5 mM) and followed by incubation for 40 min at 37° C. The reaction was stopped, and the remaining unmetabolized ATP was detected as a luciferase-generated luminescence signal by addition of ATP detection reagent. Following a room-temperature signal-stabilization period (20 min), luminescence was read on a Veritas microplate luminometer (Tuner Designs, San Francisco, Calif.). P-gp ATPase activity was presented as a drop-in luminescence of samples compared to that treated with Na3VO4.
We further evaluated compounds 1, 2, and 7 using Pgp-Go™ assay to investigate whether the brain penetration will be affected by P-glycoprotein (P-gp) efflux transporter. The Pgp-Go™ assay [see ref. 63] was carried out on recombinant human P-gp in a cell membrane fraction. […]

[2] = Plasma protein binding assay (equilibrium dialysis, RED device); assay type: in vitro ADME; details: rat plasma
Protocol: Disposable RED device inserts (product 90006) were from Thermos Scientific (Waltham, Mass.). Each insert was made of two side-by-side chambers separated by a vertical cylinder of dialysis membrane (MWCO 8,000) validated for minimal non-specific binding. A stock solution of the test compound in DMSO was spiked into the rat plasma to reach a concentration of 10 μM. 400 μL of sample solution was placed into the sample chamber of the RED device, and 600 μL of phosphate-buffered saline (PBS) was added to the buffer chamber of the RED device. Samples were prepared in triplicates. The plate was covered with aluminum sealing cover and incubated at 37° C. on an orbital shaker at approximately 200 rpm for 5 h. After incubation, 300 μL of post-dialysis samples from the buffer and sample chambers were transferred to different microcentrifuge tubes. To the buffer sample was added 300 μL of plasma, and an equal volume of buffer was added to the collected plasma sample. 600 μL of cold acetonitrile was added to the samples, and the samples were vortexed and incubated for 30 min on ice and then were centrifuged at 14000 rpm for 10 min. Supernatant was transferred to vial for HPLC analysis (XTerra™ MS C18 5μ, 2.1×250 mm column; Gradient elution from 5% to 90% B in 30 min; 0.1 M ammonium formate in water (A) and acetonitrile (B); UV 254 nm; 100 μL of injection volume). The percentage of the test bound compound was calculated as % Free=(Concentration in buffer chamber/Concentration in plasma chamber)×100%; % Bound=100%−% Free (FIG. 6).
as §1

[3] = Plasma stability in rat serum; assay type: in vitro ADME; details: 37° C., diltiazem as positive control
Protocol: Compound stability in rat serum was examined using a published method. [See ref. 57] Rat serum (100 μL, Abeam, Inc, No. ab7488) and test compound or control compound (2.5 μL, 1 mM in DMSO) was added to the individual tube. The tube was vortexed and incubated at 37° C. During the incubation, aliquots of 50 μL samples were quenched with ice-cold acetonitrile at 0, 15, 30, 60, and 120 min time points, respectively. After mixing, the quenched samples were centrifuged, and the supernatant was withdrawn for analysis by HPLC (Agilent 1260 infinity II LC System, XTerra™ MS C18, 5μ, 2.1×250 mm, 20 mM ammonium formate (A)/acetonitrile (B), 0.25 mL/min, gradient of 5% to 100% B). The samples were assayed at least three times. Compound 1-OH was used as internal standard while diltiazem was used as a positive control. The percentage remaining was calculated by (peak area at the specific time point)/(peak area at 0 min)×100% (FIG. 7).
(§2) The in vitro plasma and liver microsomal stability of 1 and 2 were studied by incubating the test compounds in rat serum and rat liver microsomes as well as NADPH cofactor, respectively, using previously published methods [see refs. 57, 58]. […] The solution stability of 1 was evaluated with buffer solutions at pH 5.0, 7.4 and 9.4, respectively (FIGS. 10 and 20) [see refs. 61].

[4] = Microsomal stability in rat liver microsomes; assay type: in vitro ADME; details: rat liver microsomes with NADPH, ML128 as positive control
Protocol: Compound stability in rat liver microsomal was tested using a published method. [see refs. 57, 58] In a vial 1.5 μL of test compound (1 mM in DMSO stock solution) was mixed with 432 μL of PBS (50 mM, pH 7.4). The mixture was kept at 37° C. for 10 min before adding 13 μL of Sprague-Dawley rat liver microsomes (Sigma-Aldrich, No. M9066). The vial was vortexed and shaken at 37° C. for 5 min, followed by addition of 50 μL of NADPH (10 mM in PBS stock solution) to start the reaction. The mixture was incubated at 37° C. for 0, 5, 15, 30, 45 min, respectively, and quenched by addition of 250 μL of ice-cold acetonitrile and 3 μL of the internal standard (0.5 mM in DMSO). The quenched solutions were centrifuged at 10,000 g for 15 min. The supernatant was collected and quantitated by RP-HPLC (Phenomenex Luna® column 5 μC18, 100 Å, 250×4.6 mm; 0.7 mL/min, 15 min, Acetonitrile/water/0.1% FA). The procedure was repeated three times for each compound. Compound 1-OH was used as internal standard and compound ML128 served as positive control. The percentage of remaining intact test-compound was calculated by (peak area at the specific time point)/(peak area at 0 min)×100%. Each procedure was repeated three times (FIGS. 8 and 9). For FIG. 8, the natural logarithm (In) of peak area ratio (test compound peak area/internal standard peak area) was plotted against time and the gradient of the line was determined. Subsequently, the half-life (t1/2) min was calculated as 0.693/k, where the elimination rate constant (k) equals to negative gradient. V (μL/mg) was obtained as a ratio of volume of incubation (μL)/protein in the incubation (mg). Finally, the intrinsic clearance (CLint) (μL/min/mg protein) was calculated as V×0.693/t1/2.
as §2

mGluR2 = molecular target: T1, mGluR2 (Homo sapiens, UniProt Q14416); details: calcium flux, Gα15 or Gα16 forced coupling; read-out: previously reported mGluR2 EC50; cited from earlier work
T1 construct: expressed in transfected cells
T1 sequence (Q14416 19-872): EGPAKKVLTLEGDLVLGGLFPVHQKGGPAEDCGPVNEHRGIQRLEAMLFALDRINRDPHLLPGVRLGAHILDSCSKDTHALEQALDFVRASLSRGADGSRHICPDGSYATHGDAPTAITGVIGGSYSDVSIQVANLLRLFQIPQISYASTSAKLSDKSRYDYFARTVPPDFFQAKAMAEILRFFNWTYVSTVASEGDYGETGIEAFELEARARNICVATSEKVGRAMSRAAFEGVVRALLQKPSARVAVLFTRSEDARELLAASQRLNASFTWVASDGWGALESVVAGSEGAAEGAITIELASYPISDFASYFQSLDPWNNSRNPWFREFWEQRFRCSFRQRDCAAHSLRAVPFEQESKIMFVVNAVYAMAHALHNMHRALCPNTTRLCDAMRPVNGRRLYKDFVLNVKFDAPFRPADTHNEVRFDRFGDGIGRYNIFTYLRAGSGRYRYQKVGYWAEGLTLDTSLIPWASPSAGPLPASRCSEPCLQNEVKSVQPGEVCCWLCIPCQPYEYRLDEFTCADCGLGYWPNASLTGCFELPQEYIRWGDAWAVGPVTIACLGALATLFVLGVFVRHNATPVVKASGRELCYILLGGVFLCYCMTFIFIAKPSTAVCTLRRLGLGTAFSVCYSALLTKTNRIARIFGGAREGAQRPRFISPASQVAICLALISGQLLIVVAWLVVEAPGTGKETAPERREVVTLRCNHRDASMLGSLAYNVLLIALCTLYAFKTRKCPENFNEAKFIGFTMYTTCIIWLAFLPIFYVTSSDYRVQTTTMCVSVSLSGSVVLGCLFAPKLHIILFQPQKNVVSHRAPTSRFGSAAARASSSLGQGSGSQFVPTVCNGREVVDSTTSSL

Structure (SMILES): Cn1c(CN2CCC(c3ccc(C(F)(F)F)cc3O[11CH3])CC2)nc2ncccc21 [[^11C]1]
- average accumulation in the rat brain ([1]; i.v. [11C]1, brain at 5 min): 0.49±0.07 % ID/g
- highest accumulation in heart ([1]; rat, i.v. [11C]1, heart): 0.58±0.05 % ID/g
- highest accumulation in kidney ([1]; rat, i.v. [11C]1, kidney): 1.05±0.07 % ID/g
- highest accumulation in liver ([1]; rat, i.v. [11C]1, liver): 2.73±0.02 % ID/g
- highest accumulation in lung ([1]; rat, i.v. [11C]1, lung (maximum at 20 min)): 0.59±0.04 % ID/g
- highest accumulation in spleen ([1]; rat, i.v. [11C]1, spleen): 0.67±0.05 % ID/g
- SUVmax in brain (mGluR2 in rat brain; rat PET, n=9): 1.8±0.2
- maximum SUV (time-activity curves) (mGluR2 in rat brain; rat PET, thalamus at 2 min post-injection): 2.3

Structure (SMILES): COc1cc(C(F)(F)F)ccc1OC[C@@H]1[C@H]2CN(Cc3nc4ncccc4n3C)C[C@@H]12 [Compound 7]
- log P (Determination of Log P; n-octanol/water): 3.3
- P-gp substrate assessment / P-gp ATPase activity (recombinant human P-gp): a potential P-gp substrate

Structure (SMILES): Fc1ccc(N2CCN(Cc3ccn4c(CC5CC5)nnc4c3C(F)(F)F)CC2)c(F)c1 [Compound 3, 8-Trifluoromethyl-3-cyclopropylmethyl-7-[(4-(2,4-difluorophenyl)-1-piperazinyl)methyl]-1,2,4-triazolo[4,3-a]pyridine, reference compound]
- decrease of [11C]1 uptake in different brain areas after pretreatment (mGluR2 in rat brain; 4 mg/kg i.v. 10 min before [11C]1, 10-30 min time window): 28-37%

Structure (SMILES): COc1cc(C(F)(F)F)ccc1C1CCN(Cc2nc3nccc4c3n2CCC4)CC1 [Compound 2]
- Log P (Determination of Log P): 3.86
- plasma protein binding ([2]; equilibrium dialysis, 10 μM): 88.7%
- fraction unbound at 5 h, 10 μM ([2]; read-out: plasma free fraction): > 0.1
- stability in rat plasma [3]: much more stable than diltiazem
- microsomal stability [4]: reasonable microsomal stability
- EC50 (mGluR2): 5 nM
